In one data set the test system is neurotensin receptors. Conditions: in vivo; cited from earlier work.
The next data set deals with CF-1 mice. The following applies: mouse, in vivo.

With Contulakin-G, in the data set with neurotensin receptors, the “potency in inhibiting pain relative to neurotensin” value was “significantly more potent than neurotensin”. Consider NGVCCGYKLCHOC [Mar1], for which, in the data set on CF-1 mice, the “motor impairment (rotarod)” value was “do not produce gross motor impairment or impair performance on the rotarod test”.
